From ChEMBL document CHEMBL5260813, “An overview on the recent developments of 1,2,4-triazine derivatives as anticancer compounds” (Eur J Med Chem, 2017)
pIC50: −log10 of the molar value.

What was measured:
[1] = system: BT-474; assay: Antiproliferative activity against human BT-474 cells assessed as inhibition of cell growth; type: functional, cell-based
[2] = system: HepG2; assay: Antiproliferative activity against human HepG2 cells assessed as cell growth inhibition; type: functional, cell-based
[3] = system: MCF7; assay: Antiproliferative activity against human MCF7 cells assessed as inhibition of cell growth; type: functional, cell-based
[4] = system: HCT-116; assay: Antiproliferative activity against human HCT-116 cells assessed as inhibition of cell growth; type: functional, cell-based
[5] = system: OVCAR-4; assay: Antiproliferative activity against human OVCAR-4 cells assessed as cell growth inhibition; type: functional, cell-based
[6] = system: HL-60; assay: Antiproliferative activity against human HL-60 cells assessed as inhibition of cell growth under normoxia condition incubated for 72 hrs by MTT assay; type: functional, cell-based; conditions: HL-60, 72 h
[7] = system: Bel-7402; assay: Antiproliferative activity against human Bel-7402 cells assessed as inhibition of cell growth under normoxia condition incubated for 72 hrs by MTT assay; type: functional, cell-based; conditions: Bel-7402, 72 h
[8] = system: ECa-109 cell line; assay: Antiproliferative activity against human Eca-109 cells assessed as inhibition of cell growth under normoxia condition incubated for 72 hrs by MTT assay; type: functional, cell-based; conditions: ECa-109, 72 h
[9] = system: PC-3; assay: Antiproliferative activity against human PC-3 cells assessed as inhibition of cell growth under normoxia condition incubated for 72 hrs by MTT assay; type: functional, cell-based; conditions: PC-3, 72 h
[10] = system: MCF7; assay: Antiproliferative activity against human MCF7 cells assessed as inhibition of cell growth under normoxia condition incubated for 72 hrs by MTT assay; type: functional, cell-based; conditions: MCF7, 72 h
[11] = system: HL-60; assay: Antiproliferative activity against human HL-60 cells assessed as inhibition of cell growth under hypoxia condition incubated for 72 hrs by MTT assay; type: functional, cell-based; conditions: HL-60, 72 h
[12] = system: Bel-7402; assay: Antiproliferative activity against human Bel-7402 cells assessed as inhibition of cell growth under hypoxia condition incubated for 72 hrs by MTT assay; type: functional, cell-based; conditions: Bel-7402, 72 h
[13] = system: ECa-109 cell line; assay: Antiproliferative activity against human Eca-109 cells assessed as inhibition of cell growth under hypoxia condition incubated for 72 hrs by MTT assay; type: functional, cell-based; conditions: ECa-109, 72 h
[14] = system: MCF7; assay: Antiproliferative activity against human MCF7 cells assessed as inhibition of cell growth under hypoxia condition incubated for 72 hrs by MTT assay; type: functional, cell-based; conditions: MCF7, 72 h
[15] = system: PC-3; assay: Antiproliferative activity against human PC-3 cells assessed as inhibition of cell growth under hypoxia condition incubated for 72 hrs by MTT assay; type: functional, cell-based; conditions: PC-3, 72 h
[16] = Ratio of IC50 for antiproliferative activity against human HL-60 cells assessed as inhibition of cell growth under normoxia condition to IC50 for antiproliferative activity against human HL-60 cells assessed as inhibition of cell growth under hypoxia condition; type: functional
[17] = Ratio of IC50 for antiproliferative activity against human Bel-7402 cells assessed as inhibition of cell growth under normoxia condition to IC50 for antiproliferative activity against human Bel-7402 cells assessed as inhibition of cell growth under hypoxia condition; type: functional
[18] = Ratio of IC50 for antiproliferative activity against human Eca-109 cells assessed as inhibition of cell growth under normoxia condition to IC50 for antiproliferative activity against human Eca-109 cells assessed as inhibition of cell growth under hypoxia condition; type: functional
[19] = Ratio of IC50 for antiproliferative activity against human MCF7 cells assessed as inhibition of cell growth under normoxia condition to IC50 for antiproliferative activity against human MCF7 cells assessed as inhibition of cell growth under hypoxia condition; type: functional
[20] = Ratio of IC50 for antiproliferative activity against human PC-3 cells assessed as inhibition of cell growth under normoxia condition to IC50 for antiproliferative activity against human PC-3 cells assessed as inhibition of cell growth under hypoxia condition; type: functional
[21] = target: T1, Tyrosine-protein kinase SYK (Homo sapiens, UniProt P43405); assay: Inhibition of human SYK using 5-Fluo-Ahx-GAPDYENLQELNKK-Amid as substrate in presence of ATP by microfluidic mobility shift assay
[22] = target: T1, Tyrosine-protein kinase SYK; assay: Inhibition of SYK in human Ramos cells assessed as reduction in anti IgM-induced phosphorylation of BLNK by flow cytometry assay; type: cell-based
[23] = target: Epidermal growth factor receptor (Homo sapiens, UniProt P00533); assay: Inhibition of EGFR (unknown origin)
Epidermal growth factor receptor, sequence (P00533 whole entry): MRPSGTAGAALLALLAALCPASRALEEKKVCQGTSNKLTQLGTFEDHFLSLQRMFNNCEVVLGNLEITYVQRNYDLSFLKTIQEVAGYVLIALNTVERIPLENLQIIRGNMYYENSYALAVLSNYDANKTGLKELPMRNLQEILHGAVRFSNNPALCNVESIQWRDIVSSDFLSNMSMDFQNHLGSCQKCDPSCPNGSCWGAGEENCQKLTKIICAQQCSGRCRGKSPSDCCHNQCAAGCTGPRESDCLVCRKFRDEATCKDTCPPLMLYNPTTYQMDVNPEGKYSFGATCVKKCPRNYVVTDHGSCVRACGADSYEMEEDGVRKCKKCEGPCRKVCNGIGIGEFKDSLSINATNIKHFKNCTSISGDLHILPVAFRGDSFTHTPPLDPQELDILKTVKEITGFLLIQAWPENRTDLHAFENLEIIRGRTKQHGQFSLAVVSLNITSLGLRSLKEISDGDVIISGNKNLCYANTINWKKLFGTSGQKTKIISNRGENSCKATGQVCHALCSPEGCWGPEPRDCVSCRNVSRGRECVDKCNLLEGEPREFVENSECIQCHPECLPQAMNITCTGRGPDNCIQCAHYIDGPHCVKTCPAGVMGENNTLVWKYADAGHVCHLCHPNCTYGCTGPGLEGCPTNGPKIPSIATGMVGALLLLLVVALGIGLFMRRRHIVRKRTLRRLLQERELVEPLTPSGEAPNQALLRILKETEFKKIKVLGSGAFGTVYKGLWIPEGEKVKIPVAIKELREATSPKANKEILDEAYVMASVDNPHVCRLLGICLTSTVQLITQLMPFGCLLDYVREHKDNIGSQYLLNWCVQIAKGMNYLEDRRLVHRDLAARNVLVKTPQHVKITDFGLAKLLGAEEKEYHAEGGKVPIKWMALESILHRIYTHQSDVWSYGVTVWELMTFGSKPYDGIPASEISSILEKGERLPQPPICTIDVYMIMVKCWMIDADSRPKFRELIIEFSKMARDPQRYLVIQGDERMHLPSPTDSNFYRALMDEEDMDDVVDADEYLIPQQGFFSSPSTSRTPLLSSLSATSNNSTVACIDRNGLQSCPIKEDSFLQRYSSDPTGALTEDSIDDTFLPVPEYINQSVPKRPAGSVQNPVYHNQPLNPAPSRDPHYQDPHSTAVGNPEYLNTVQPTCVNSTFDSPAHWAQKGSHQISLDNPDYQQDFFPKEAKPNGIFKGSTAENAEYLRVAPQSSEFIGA

[24] = target: Vascular endothelial growth factor receptor 2 (Homo sapiens, UniProt P35968); assay: Inhibition of VEGFR-2 (unknown origin)
Vascular endothelial growth factor receptor 2, sequence (P35968 whole entry): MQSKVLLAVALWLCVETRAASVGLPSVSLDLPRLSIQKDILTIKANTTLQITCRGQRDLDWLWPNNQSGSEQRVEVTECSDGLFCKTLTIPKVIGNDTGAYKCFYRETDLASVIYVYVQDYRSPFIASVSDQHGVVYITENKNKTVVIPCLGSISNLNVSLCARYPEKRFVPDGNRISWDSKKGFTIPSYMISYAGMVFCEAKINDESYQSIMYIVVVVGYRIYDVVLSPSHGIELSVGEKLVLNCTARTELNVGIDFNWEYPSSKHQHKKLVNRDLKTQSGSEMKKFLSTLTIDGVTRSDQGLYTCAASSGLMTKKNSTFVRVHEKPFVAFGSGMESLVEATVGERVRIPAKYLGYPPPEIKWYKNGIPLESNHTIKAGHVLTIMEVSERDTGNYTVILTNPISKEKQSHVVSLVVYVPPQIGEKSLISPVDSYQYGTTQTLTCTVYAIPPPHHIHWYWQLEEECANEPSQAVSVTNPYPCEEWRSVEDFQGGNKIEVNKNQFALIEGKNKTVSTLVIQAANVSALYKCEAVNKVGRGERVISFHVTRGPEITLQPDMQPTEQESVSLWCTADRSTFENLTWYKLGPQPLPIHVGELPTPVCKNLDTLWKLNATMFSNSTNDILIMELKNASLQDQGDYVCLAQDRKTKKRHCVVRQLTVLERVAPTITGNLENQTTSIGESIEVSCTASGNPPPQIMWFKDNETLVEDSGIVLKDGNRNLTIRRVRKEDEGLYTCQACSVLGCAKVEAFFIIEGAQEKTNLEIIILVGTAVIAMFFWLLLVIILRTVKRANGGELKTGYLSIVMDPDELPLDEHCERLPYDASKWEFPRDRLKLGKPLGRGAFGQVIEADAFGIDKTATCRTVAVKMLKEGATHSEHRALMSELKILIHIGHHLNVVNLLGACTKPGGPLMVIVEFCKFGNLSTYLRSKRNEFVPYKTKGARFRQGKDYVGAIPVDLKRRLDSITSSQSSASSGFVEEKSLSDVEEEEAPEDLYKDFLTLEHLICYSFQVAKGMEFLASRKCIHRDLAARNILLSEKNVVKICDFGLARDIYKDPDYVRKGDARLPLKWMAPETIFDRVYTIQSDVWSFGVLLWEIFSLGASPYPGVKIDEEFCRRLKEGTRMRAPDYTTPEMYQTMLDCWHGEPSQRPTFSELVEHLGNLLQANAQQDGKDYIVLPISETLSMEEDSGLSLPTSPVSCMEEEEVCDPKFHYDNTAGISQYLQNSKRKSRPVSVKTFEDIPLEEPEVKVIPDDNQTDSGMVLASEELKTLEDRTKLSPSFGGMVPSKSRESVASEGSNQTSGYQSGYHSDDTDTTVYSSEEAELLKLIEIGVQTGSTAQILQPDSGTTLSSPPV

[25] = Antiproliferative activity against human DiFi cells assessed as inhibition of cell growth by MTS assay
[26] = system: HT-29; assay: Antiproliferative activity against human HT-29 cells assessed as inhibition of cell growth by SRB assay; type: functional, cell-based
[27] = system: HT-29; assay: Potency index, ratio of tirapazamine IC50 to compound IC50 for antiproliferative activity against human HT-29 cells; type: functional
[28] = system: MCF7; assay: Cytotoxicity against human MCF7 cells assessed as inhibition of cell growth incubated for 72 hrs by MTT assay; type: functional, cell-based; conditions: MCF7, 72 h
[29] = system: HL-60; assay: Antiproliferative activity against human HL-60 cells assessed as inhibition of cell growth incubated for 72 hrs by MTT assay; type: functional, cell-based; conditions: HL-60, 72 h
[30] = system: MOLT-4; assay: Antiproliferative activity against human MOLT-4 cells assessed as inhibition of cell growth incubated for 72 hrs by MTT assay; type: functional, cell-based; conditions: MOLT-4, 72 h

## CCCc1nc2c(=O)n(C)c(=O)nc-2n(C)n1
[1]
  pIC50: 6.05

## Cn1nc(-c2ccccc2)nc2c(=O)n(C)c(=O)nc1-2
[1]
  pIC50: 6.05

## CC(=O)Nn1c(S)nnc(/C=C/c2cccs2)c1=O
[2]
  pIC50: 5.06
[3]
  pIC50: 5.06
[4]
  pIC50: 5.06

## Cc1c(C#N)c2nnc(C#N)c(N)n2c1-c1ccccc1
[5]
  pIC50: 5.56

## [O-][n+]1nc(NC2CCCCC2)[n+]([O-])c2ccc(Cl)cc21
[6]
  pIC50: 6.70
[7]
  pIC50: 6.70
[8]
  pIC50: 6.70
[9]
  pIC50: 6.70
[10]
  pIC50: 6.70
[11]
  pIC50: 6.70
[12]
  pIC50: 6.70
[13]
  pIC50: 6.70
[14]
  pIC50: 6.70
[15]
  pIC50: 6.70
[16]
  Ratio IC50: 6.4
[17]
  Ratio IC50: 1
[18]
  Ratio IC50: 2.9
[19]
  Ratio IC50: 2.7
[20]
  Ratio IC50: 2

## CCNc1n[n+]([O-])c2cc([N+](=O)[O-])ccc2[n+]1[O-]
[6]
  pIC50: 6.70
[7]
  pIC50: 6.70
[8]
  pIC50: 6.70
[9]
  pIC50: 6.70
[10]
  pIC50: 6.70
[11]
  pIC50: 6.70
[12]
  pIC50: 6.70
[13]
  pIC50: 6.70
[14]
  pIC50: 6.70
[15]
  pIC50: 6.70
[16]
  Ratio IC50: 1.4
[17]
  Ratio IC50: 1.6
[18]
  Ratio IC50: 2.2
[20]
  Ratio IC50: 1.9

## N#Cc1c[nH]c2c(Nc3nc(N[C@@H]4CCCCC4N)nnc3C(N)=O)cccc12 (single isomer, unassigned)
[21]
  pIC50: 9.10
[22]
  pIC50: 7.85

## Cc1cc2c(Nc3ccc(F)c(Cl)c3)ncnn2c1
[23]
  pIC50: < 5.70
[24]
  pIC50: 6.82
[25]
  pIC50: 5.80

## Cc1cc2c(Nc3ccc(C)c(O)c3)ncnn2c1
[23]
  pIC50: 6.39
[24]
  pIC50: 6.18

## Cc1ccc(Nc2ncnn3cc(C)c(C)c23)cc1O
[23]
  pIC50: 7.64
[24]
  pIC50: 6.70

## CNCCNc1nc2ccccc2[n+]([O-])n1
[26]
  pIC50: 5.64
[27]
  Ratio IC50: 6.11

## Cc1c[nH]c2c(Nc3nc(N[C@@H]4CCCC[C@@H]4N)nnc3C(N)=O)cc(F)cc12
[22]
  pIC50: 7.85

## Cn1nc(Cc2ccccc2)nc2c(=O)n(C)c(=O)nc1-2
[1]
  pIC50: 6.05

## Cc1ccc(Nc2ncnn3cccc23)cc1O
[23]
  pIC50: 5.84
[24]
  pIC50: 6.29

## Cc1c(-c2ccccc2)c(C#N)c2nnc(C(N)=O)c(N)n12
[5]
  pIC50: 5.56

## Cc1ccc(Nc2ncnn3ccc(C)c23)cc1O
[23]
  pIC50: 7.18
[24]
  pIC50: 6.46

## O=[N+]([O-])c1ccccc1CSc1nnc2c(n1)-c1cccc3cccc-2c13
[28]
  pIC50: 4.52
[29]
  pIC50: 4.52
[30]
  pIC50: 4.52

## CCc1nc2ccccc2[n+]([O-])n1
[26]
  pIC50: < 5.52
[27]
  Ratio IC50: 1.3

## NC(=O)c1nnc(N[C@@H]2CCCC[C@@H]2N)nc1Nc1cccc2c(Cl)c[nH]c12
[21]
  pIC50: 9.10
[22]
  pIC50: 7.85

## Cc1ccn2ncnc(Nc3ccc(F)c(Cl)c3)c12
[23]
  pIC50: < 5.00
[24]
  pIC50: 7.00
[25]
  pIC50: 5.80

## [O-][n+]1nc(NCc2ccccc2)[n+]([O-])c2ccc(Cl)cc21
[6]
  pIC50: 6.70
[7]
  pIC50: 6.70
[8]
  pIC50: 6.70
[9]
  pIC50: 6.70
[10]
  pIC50: 6.70
[11]
  pIC50: 6.70
[12]
  pIC50: 6.70
[13]
  pIC50: 6.70
[14]
  pIC50: 6.70
[15]
  pIC50: 6.70
[16]
  Ratio IC50: 1
[17]
  Ratio IC50: 1.8
[18]
  Ratio IC50: 3.2
[19]
  Ratio IC50: 1.1
[20]
  Ratio IC50: 1.4

## CCSc1nnc2c(n1)-c1cccc3cccc-2c13
[28]
  pIC50: 4.52
[29]
  pIC50: 4.52
[30]
  pIC50: 4.52

## CSc1nnc2c(n1)-c1cccc3cccc-2c13
[28]
  pIC50: 4.52
[29]
  pIC50: 4.52
[30]
  pIC50: 4.52

## [O-][n+]1nc(CCO)nc2ccccc21
[26]
  pIC50: < 5.52
[27]
  Ratio IC50: 1.2

## N#CCNc1nc2ccccc2[n+]([O-])n1
[26]
  pIC50: < 6.52
[27]
  Ratio IC50: 1.9

## Cc1c[nH]c2c(Nc3nc(N[C@@H]4CCCC[C@@H]4N)nnc3C(N)=O)cccc12
[21]
  pIC50: 9.10
[22]
  pIC50: 7.85

## Clc1ccc(CSc2nnc3c(n2)-c2cccc4cccc-3c24)c(Cl)c1
[28]
  pIC50: 4.52
[29]
  pIC50: 4.52
[30]
  pIC50: 4.52
